Data from patent US20160183556A1, “METHOD FOR PRODUCING FEED ADDITIVE CONTAINING SURFACTIN” (SAFT biotechnology com. LTD, priority 2014, published 2016).
In brackets after ≈: the same amount, converted by molar mass. Read-outs that look alike come from different tables or passages of the source. Starred links: 1 amine or outer side, 2 acyl side, 3 side chain; linkers in the order of their positions; H or OH if unused. Positions of bridges follow the written chain, without caps; N, C: chain ends. Non-standard residues stand in square brackets, D forms with d. Residues, ends and D or L forms follow the SMILES beside them. X1 = CC(C)CCCCCCCCC[C@H](CC(=O)[*:1])O[*:2]

How the values were obtained:
Aspergillus niger = test: in vitro susceptibility test (MIC), fungal culture; type: cell-based; conditions: read-out: minimum inhibiting concentration (MIC)
Experimental: (§1) To examine whether surfactin has antimicrobial activity, in vitro susceptibility test was conducted.
Aspergillus niger was inoculated onto the MEAIII plate and incubated at 25° C. for 48 hours, the colonies were scraped off into specific culture medium. Bacterial culture was spread onto the MEAIII plate after serial dilution and the number of colonies was calculated, the original concentration was determined to be 1×10^6 CFU/ml. An aliquot of 500 μl of the bacterial culture was add to 500 μl of MEB before diluting the concentration of bacterial culture to 5×10^5 CFU/ml.
(§2) An aliquot of 130 μl of the bacterial culture was added to each well of a 96-well plate, the concentration of bacterial culture was 5×10^5 CFU/ml, 20 μl of surfactin at different concentrations prepared by titration were added and incubated at 37° C. for 16 hours. A spectrophotometer was used to calculate the concentration of bacterial growth and the obtained data was compared with the original value (OD540=1), the concentration of the experimental group that equals to the original value is used as the minimum inhibiting concentration (MIC). Each group was prepared in triplicate and a control group was included.

Escherichia coli DH5α = test: in vitro susceptibility test (MIC); type: cell-based; conditions: E. coli, 37° C.
Experimental: as §1
(§3) Preparation of bacterial culture of Escherichia coli DH5α, Vibrio harveyi, Vibrio alginolyticus, Vibrio anguillarum, Vibrio salmonicida, Aeromonas hydrophila and Staphylococcus epidermidis by inoculation of these bacteria onto LBA (E. coli·DH5α) or TSA (+1.5% NaCl) and incubation at 37° C. for 16 hours. Later, the colonies were scraped off and dissolved in specific medium; the concentration was adjusted to OD540 of 1 (1×10^9 colonies/c.c. culture medium), 100 μl of bacterial culture were add to 900 μl of LB or TSB (+1.5% NaCl) to give a concentration of […].
as §2

[1] = system: Staphylococcus epidermidis; test: in vitro susceptibility test (MIC); type: cell-based; conditions: 37° C., OD540, read-out: minimum inhibiting concentration (MIC)
Experimental: as §1, §3, §2

Vibrio anguillarum = test: in vitro susceptibility test (MIC); type: cell-based; conditions: 37° C., OD540, read-out: minimum inhibiting concentration (MIC)
Experimental: as §1, §3, §2

Vibrio alginolyticus = test: in vitro susceptibility test (MIC); type: cell-based; conditions: 37° C., OD540, read-out: minimum inhibiting concentration (MIC)
Experimental: as §1, §3, §2

Vibrio harveyi = test: in vitro susceptibility test (MIC); type: cell-based; conditions: 37° C., OD540, read-out: minimum inhibiting concentration (MIC)
Experimental: as §1, §3, §2

Vibrio salmonicida = test: in vitro susceptibility test (MIC); type: cell-based; conditions: 37° C., OD540, read-out: minimum inhibiting concentration (MIC)
Experimental: as §1, §3, §2

Iridovirus = test: effect of surfactin on morphology of virus particles (transmission electron microscope)
bacterial culture = test: in vitro susceptibility test (MIC), summary statement of the text; type: cell-based
Experimental: as §1, §3, §2

Aeromonas hydrophila = test: in vitro susceptibility test (MIC); type: cell-based; conditions: 16 h, 37° C., OD540, read-out: minimum inhibiting concentration (MIC)
Experimental: as §1, §3, §2

nervous necrosis virus = test: effect of surfactin on morphology of virus particles (transmission electron microscope)
Experimental: Surfactin was dissolved in sterilized water and the solution was filtered with a 0.2 μm filter membrane, followed by dilution of dissolved surfactin in 1% FBS-L15 to give diluted surfactin solution at the concentrations of 40 μg/ml and […]. The surfactin treatment group: surfactin and virus in the volume ratio of 1:1 were mixed. Control group: 1% FBS-L15 culture medium with NNV culture were mixed and incubated at 28° C. for 1 day before examination under a transmission electron microscope (Hitachi H-600). An aliquot of 6 μl of the surfactin treatment group was dropped onto a copper mesh to allow precipitation of the virus for about 10 minutes before been stained in 1% phosphotungstic acid (PTA, Sigma) at pH 7.4. After staining, excess mixture was removed with filter paper and incubated at room temperature for 30 minutes. The sample was examined after the copper mesh was air-dried. The voltage used for transmission electron microscope was 75 KV and the exposure time of the film was 4 seconds. The removed negative film was placed on the rack and soaked in the developer D19 for 4 minutes to develop the image. After completion of development, the film was soaked in 0.33% glacial acetic acid to stop the reaction followed by 10 minutes in fixative. Finally, excess chemicals were removed by placing the film under running water for 60 minutes before drying.

[2] = surfactin 20 μM; reduced from 72 mN/m; cited from earlier work

| SMILES | MIC (Aspergillus niger) [µM] | MIC (Escherichia coli DH5α; 16 hours, OD540, read-out: minimum inhibiting concentration (MIC)) [µM] | MIC ([1]; 16 hours) [µM] | MIC (Vibrio anguillarum; 16 hours) [µM] | MIC (Vibrio alginolyticus; 16 hours) [µM] | MIC (Vibrio harveyi; 16 hours) [µM] | MIC (Vibrio salmonicida; 16 hours) [µM] | morphology of Iridovirus particles (Iridovirus; 10 μg/ml surfactin + Iridovirus, FIG. 2B (B)) | morphology of Iridovirus particles (Iridovirus; 40 μg/ml surfactin + Iridovirus, FIG. 2B (C)) | MIC (bacterial culture) [µM] | MIC (Escherichia coli DH5α; Escherichia coli, 16 h, OD540, read-out: minimum inhibiting concentration (MIC)) [µM] | MIC (Aeromonas hydrophila) [µM] | MIC ([1]; 16 h) [µM] | MIC (Vibrio anguillarum; 16 h) [µM] | MIC (Vibrio alginolyticus; 16 h) [µM] | MIC (Vibrio harveyi; 16 h) [µM] | MIC (Vibrio salmonicida; Aliivibrio salmonicida, 16 h) [µM] | morphology of nervous necrosis virus particles (nervous necrosis virus; 40 μg/ml surfactin + nervous necrosis virus, FIG. 2A (D)) | morphology of nervous necrosis virus particles (nervous necrosis virus; 100 μg/ml surfactin + nervous necrosis virus, FIG. 2A (E)) | surface tension of water [2] [mN/m] |
| --- | --- | --- | --- | --- | --- | --- | --- | --- | --- | --- | --- | --- | --- | --- | --- | --- | --- | --- | --- | --- |
| CC(C)CCCCCCCCC[C@@H]1CC(=O)N[C@@H](CCC(=O)O)C(=O)N[C@@H](CC(C)C)C(=O)N[C@H](CC(C)C)C(=O)N[C@@H](C(C)C)C(=O)N[C@@H](CC(=O)O)C(=O)N[C@H](CC(C)C)C(=O)N[C@@H](CC(C)C)C(=O)O1 [surfactin produced by the high-yield mutant strain of Bacill] (EL[dL]VD[dL]L; linker N-C via X1) | 128.7 (≈ 133 µg/mL) | 96.5 (≈ 100 µg/mL) | 96.5 (≈ 100 µg/mL) | 96.5 (≈ 100 µg/mL) | 96.5 (≈ 100 µg/mL) | 96.5 (≈ 100 µg/mL) | 96.5 (≈ 100 µg/mL) | – | – | – | – | – | – | – | – | – | – | – | – | – |
| CC(C)CCCCCCCCC[C@@H]1CC(=O)N[C@@H](CCC(=O)O)C(=O)N[C@@H](CC(C)C)C(=O)N[C@H](CC(C)C)C(=O)N[C@@H](C(C)C)C(=O)N[C@@H](CC(=O)O)C(=O)N[C@H](CC(C)C)C(=O)N[C@@H](CC(C)C)C(=O)O1 [surfactin] (EL[dL]VD[dL]L; linker N-C via X1) | 193 (≈ 200 µg/mL) | – | – | – | – | – | – | the appearance of said virus has changed | adhesion between surfactin and viruses is observed | 96.5 (≈ 100 µg/mL) | 193 (≈ 200 µg/mL) | 129 (≈ 133 µg/mL) | 129 (≈ 133 µg/mL) | 129 (≈ 133 µg/mL) | 129 (≈ 133 µg/mL) | 129 (≈ 133 µg/mL) | 129 (≈ 133 µg/mL) | normal viral particles | abnormal viral particles | 27 |
